Results from article PMC10484922, “Discovery of a selective and biologically active low-molecular weight antagonist of human interleukin-1β” (Nature Communications, 2023).
Where “and” joins values, the source holds several entries; their conditions need not be identical. Equal entries are not always repeated. Where two headings read alike, the source gives them in different places.

Legend:
[1] = molecular target: T1, IL-1α (Homo sapiens, UniProt P01583); assay: TR-FRET IL-1α/hIL-1R1 receptor displacement assay; assay type: biochemical; set-up: TR-FRET raw data: scale not given here
T1 sequence (P01583 113-271): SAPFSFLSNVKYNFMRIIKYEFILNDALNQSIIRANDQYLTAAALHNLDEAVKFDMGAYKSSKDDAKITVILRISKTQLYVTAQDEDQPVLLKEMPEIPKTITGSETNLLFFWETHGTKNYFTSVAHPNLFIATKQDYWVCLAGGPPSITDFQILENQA
Procedure: After 1 h incubation at room temperature, hIL-1R1 (1–332; Alexa 647 labeled; 50 nM final concentration) and anti-His-Europium W1024 (Perkin Elmer; Cat.No. AD0401, 1 nM final concentration) were added to a final volume of 10 μl per well. After 1 h of incubation at room temperature, time-resolved fluorescence was measured at λexc = 320 ± 20 nm, λem = 620 ± 25 nm/665 ± 25 nm using a Pherastar FSX plate reader. All experiments were run in triplicates. The data provided a typical saturation-binding curve, and the IC50 values were calculated by fitting the results to the Hill equation using Prism 7.0 and the in-house software Helios.

[2] = molecular target: T2, IL-1β (Homo sapiens, UniProt P01584); assay: protein-observed 1H-13C-HMQC NMR binding (I/Io of Leu60 Cδ1H3); set-up: Mature hIL-1β was expressed in Escherichia coli; made in house; host or cells: Escherichia coli BL21 (DE3), pET17b; conditions: hIL-1β 50 µM, 500 µM compound
Procedure: ^1H–^13C- and ^1H–^15N-HMQC spectra were recorded on Bruker AVANCE 600 MHz and 800 MHz spectrometers equipped with TXI-cryocooled probeheads. In ligand binding experiments, protein concentrations were typically 50 μM in PBS, pH 7.4. Backbone assignments of hIL-1β in the ligand-bound state and unliganded state were obtained by a combination of a 3D triple resonance experiment HNCACB and a ^15N-edited NOESY spectrum, which were processed using TOPSPIN 3.2 and analyzed using CcpNmr AnalysisAssign 3.1.0[46]. ^15N-CEST experiments were run at weak B1 radiofrequency fields of 25 and 12.5 Hz on a Bruker AVANCE 800 MHz spectrometer with 113 increments and a total sweep width of 28 ppm in the pseudo-3D dimension. Peak intensities were extracted by fitting pseudo-Voigt lineshape models using peakipy (https://github.com/j-brady/peakipy). Fitted peak intensities were subsequently used to generate CEST profiles, and exchange parameters were fitted using ChemEx (https://github.com/gbouvignies/ChemEx).
Supplementary Figure 2. 13C-NMR and 19F-NMR reporter assays to monitor early
13C-HMQC spectra of hIL-1b (50 µM) were acquired in the presence (red) and absence (blue) of 500
µM compound and rows were extracted at the w1-frequency of the peak corresponding to Leu60 […]

[3] = molecular target: T2, IL-1β; assay: 19F-reporter displacement assay with (S)-1 as probe; assay type: binding; set-up: Mature hIL-1β was expressed in Escherichia coli; made in house; host or cells: Escherichia coli BL21 (DE3), pET17b
Procedure: Protein and reporter concentrations were 10 and 40 μM, respectively. To account for changes in sample homogeneity, samples contained 1-(2,2,2-trifluoroacetyl)piperidine-4-carboxylic acid as an internal reference for scaling signal intensities. Three concentrations of the competitor were typically measured, and the related displacement of the probe was converted into Ki-values according to Dalvit and Vulpetti[17]. […] This process was automated with FRPipe, an in-house developed Python script (https://github.com/Novartis/FRPipe) that allows for streamlined analysis of such experiments. […] For visual inspection, an overview containing relevant ^19F peaks, fitting curves, and proton spectra was plotted.
Supplementary Figure 2. 13C-NMR and 19F-NMR reporter assays to monitor early structure activity relationships of analogues of 1. a, b Early structure activity relationships monitored by protein-observed and c-f 19F-NMR reporter assays, exemplified for compound 8. a 1H-13C-HMQC spectra of hIL-1b (50 µM) were acquired in the presence (red) and absence (blue) of 500 µM compound and rows were extracted at the w1-frequency of the peak corresponding to Leu60 Cd1H3. b The degree of protein binding was estimated from the ratio I/I0, where I and I0 correspond to the signal in the presence and absence of compound, respectively. c For the assessment of the KI-values, the signal intensity of a reporter molecule (S)-1 was monitored in 19F-transverse relaxation experiments run in the absence and presence of increasing amounts of compound. d All intensities were scaled to the intensity of an internal standard (all signals in panel c and d are shifted on the X-axis for clarity). e KI-values were retrieved from theoretical binding curves calculated for each compound concentration8. f One-dimensional 1H-NMR spectra were recorded for each assay mixture to assess the structural integrity and solubility of the compound in the sample.
(1 picture or pasted object on this page, not shown here)

[4] = 19F-reporter Ki, protein 10 μM, reporter (S)-1 40 μM
[5] = 19F-reporter, individual experiments (Exp1-58), source data
[6] = IL-1alpha, 0.01 uM, per experiment
[7] = IL-1alpha, 0.1 uM, per experiment
[8] = IL-1alpha, 0.2 uM, per experiment
[9] = IL-1alpha, 2 uM, per experiment
[10] = IL-1alpha, 63 uM, per experiment
[11] = IL-1alpha, 200 uM, per experiment

T2 sequence (P01584 117-269): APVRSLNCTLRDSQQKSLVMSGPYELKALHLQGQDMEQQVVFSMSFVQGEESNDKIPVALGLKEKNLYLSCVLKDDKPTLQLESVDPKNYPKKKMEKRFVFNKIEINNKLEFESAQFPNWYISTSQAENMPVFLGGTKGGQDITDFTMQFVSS

Which IC50 ([1]; read-out: TR-FRET IL-1α IC50) does the source give for `Cc1ccc2c(c1)NC(=O)C2(O)c1cc(-c2ccc(C(=O)O)cc2)ccc1O` (stereo not drawn) [Compound 10] here?
Its IC50 is greater than 200 µM.

What about the “I/Io (ratio of peak intensities of Leu60 Cδ1H3 in 1H-13C-HMQC spectra in presence and absence of ligand)” value [2] of the same molecule?
Its value is 0.1 (N = 1).

And the Ki [3, 4]?
Its Ki is 75 ± 40 µM.

And the Ki [3, 5]?
Its Ki is 103 µM and 47 µM.

How did the IC50 ([1]; read-out: TR-FRET IL-1α IC50) turn out when `O=C(O)c1ccccc1-c1ccc(O)c(C2(O)C(=O)Nc3cc(Cl)ccc32)c1` (stereo not drawn) [Compound 11] was run?
Its IC50 is greater than 200 µM.

What about the “I/Io (ratio of peak intensities of Leu60 Cδ1H3 in 1H-13C-HMQC spectra in presence and absence of ligand)” value [2] of the same molecule?
Its value is <0.1 (N = 1).

What about the Ki [3, 4] of the same molecule?
Its Ki is 63 ± 41 µM.

And the Ki [3, 5]?
Its Ki is 92 µM and 34 µM.

How did the “inhibition of the IL-1R1/IL-1α interaction” value [1] turn out when `Cc1ccc2c(c1)NC(=O)[C@@]2(c1cn[nH]c1)c1cc(-c2ccc(C(=O)O)cc2C(=O)O)ccc1O` [Compound (S)-2] was run?
The value was “did not observe inhibition of IL-1α”.

And the “TR-FRET calculated % inhibition” value [1, 6]?
The value was 3%.

And the TR-FRET raw data [1, 6]?
The TR-FRET raw data was 96 and 97.

And the inhibition at 0.01 µM ([1]; IL-1alpha, 0.01 uM, per experiment, read-out: TR-FRET calculated % inhibition)?
Its inhibition at 0.01 µM is 4%.

And the TR-FRET raw data ([1]; IL-1alpha, 0.02 uM, per experiment)?
Its TR-FRET raw data is 96.

And the inhibition at 0.02 µM ([1]; IL-1alpha, 0.02 uM, per experiment, read-out: TR-FRET calculated % inhibition)?
The inhibition at 0.02 µM was 5%.

And the “TR-FRET calculated % inhibition” value [1, 7]?
The value was 2%.

And the TR-FRET raw data [1, 7]?
Its TR-FRET raw data is 96 and 98.

And the inhibition at 0.1 µM ([1]; IL-1alpha, 0.1 uM, per experiment, read-out: TR-FRET calculated % inhibition)?
Its inhibition at 0.1 µM is 4%.

What about the “TR-FRET calculated % inhibition” value [1, 8] of the same molecule?
The value was 3%.

And the TR-FRET raw data [1, 8]?
The TR-FRET raw data was 95 and 97.

And the inhibition at 0.2 µM ([1]; IL-1alpha, 0.2 uM, per experiment, read-out: TR-FRET calculated % inhibition)?
The inhibition at 0.2 µM was 6%.

And the TR-FRET raw data ([1]; IL-1alpha, 0.6 uM, per experiment)?
Its TR-FRET raw data is 99 and 89.

What about the “TR-FRET calculated % inhibition” value [1, 9] of the same molecule?
The value was 2% and 11%.

And the TR-FRET raw data [1, 9]?
The TR-FRET raw data was 98 and 90.

What about the TR-FRET raw data ([1]; IL-1alpha, 6 uM, per experiment) of the same molecule?
Its TR-FRET raw data is 87 and 97.

What about the TR-FRET raw data ([1]; IL-1alpha, 20 uM, per experiment) of the same molecule?
Its TR-FRET raw data is 87 and 99.

What about the “TR-FRET calculated % inhibition” value [1, 10] of the same molecule?
The value was 8% and 2%.

What about the TR-FRET raw data [1, 10] of the same molecule?
Its TR-FRET raw data is 93 and 98.

And the “TR-FRET calculated % inhibition” value [1, 11]?
Its value is 7% and 1%.

What about the TR-FRET raw data [1, 11] of the same molecule?
Its TR-FRET raw data is 94 and 99.

And the IC50 ([1]; Il1a, read-out: TR-FRET IC50, individual experiments)?
The IC50 was greater than 200 µM.

And the IC50 ([1]; read-out: TR-FRET IL-1α IC50)?
The IC50 was greater than 200 µM.

And the “I/Io (ratio of peak intensities of Leu60 Cδ1H3 in 1H-13C-HMQC spectra in presence and absence of ligand)” value [2]?
The value was less than 0.1.

And the Ki ([3]; protein 10 μM, reporter (S)-1 40 μM, read-out: 19F-reporter Ki)?
The Ki was less than 10 µM.
